From patent publication US20150335609A1, “COMBINATIONS OF HISTONE DEACETYLASE INHIBITOR AND PAZOPANIB AND USES THEREOF” (Pharmacyclics, Inc., priority 2012, published 2015) come the findings set out here.

In series [1] the test system is lung, colon, prostate, pancreatic and brain tumors. Nature of the series: Mouse tumor models. In kind it is in vivo.
Another series concerns RAD51. The experiment in a line: Pre-clinical models, expression of DNA repair genes. From the text: Following chemotherapy and/or radiation treatment, some patient's tumors may turn on certain genes as a strategy by the tumor to adapt to the therapy and become resistant to cell death. One example of a genetic change that occurs in many cancers is the activation of the DNA repair gene RAD51. In response to treatment with DNA-damaging chemotherapy or radiation, tumors will often turn on DNA repair genes (including RAD51) as an adaptive strategy to help the tumor repair the DNA damage done by these agents.

A short description of series [2]: Site of absorption of abexinostat.
Series [3] in a line: Clinical pharmacokinetics of abexinostat, IV and oral dosing. As to conditions: human, in vivo; for bioavailability: humans; for AUC(0-inf): humans with cancer, solution form, read-out: Systemic exposure measured as AUC0-∞. As for the experimental part:
In clinical trials involving humans with cancer, abexinostat in solution form was administered at 2 mg/kg as a single oral dose and as multiple 2-hour IV infusion doses.

The nature of series [4]: Incidence of thrombocytopenia by dosing frequency. In kind it is in vivo, human. As to conditions: twice a day dosing compared to three times a day dosing. The method, then:
In some embodiments, abexinostat (or a salt thereof; e.g., abexinostat HCl) is administered once per day during a cycle of abexinostat (or a salt thereof; e.g., abexinostat HCl). In some embodiments, abexinostat (or a salt thereof; e.g., abexinostat HCl) is administered twice per day during a cycle of abexinostat (or a salt thereof; e.g., abexinostat HCl). In some embodiments, abexinostat (or a salt thereof; e.g., abexinostat HCl) is administered three times per day during a cycle of abexinostat (or a salt thereof; e.g., abexinostat HCl).
In certain instances, thrombocytopenia is a side effect observed in humans that receive treatment with HDAC inhibitor compounds. Grade 4 thrombocytopenia typically includes instances when the human has a platelet count less than 25,000 per […]. Thrombocytopenia may be ameliorated or avoided by lowering the daily dose of abexinostat. In some embodiment, a method disclosed herein further comprises an abexinostat (or a salt thereof; e.g., abexinostat HCl) drug holiday following an abexinostat (or a salt thereof; e.g., abexinostat HCl) cycle.

A further series concerns primary human tumors. The experiment in a line: Ex vivo activity in primary human tumors. Conditions: tumors from patients. It counts as cell-based.
Series [5] in a line: Pharmacokinetics in laboratory animals, fasted state versus fed state. It counts as in vivo.
Another series has as its system tumor cell lines. Nature of the series: In vitro activity against tumor cell lines. In kind it is cell-based.

Like-named read-outs stand apart in the source and are kept apart here.

In general, bioavailability refers to dose-corrected exposure relative to a reference, in per cent. Low readings indicate poor availability, high ones good availability. As to `CN(C)Cc1c(C(=O)NCCOc2ccc(C(=O)NO)cc2)oc2ccccc12` [abexinostat, N-hydroxy-4-{2-[3-(N,N-dimethylaminomethyl)benzofuran-2-ylcarbonylamino]ethoxy}-benzamide], the “efficacy in mouse tumor models” value in series [1] is “efficacious in mouse models of lung, colon, prostate, pancreatic and brain tumors”. In the series on RAD51, the “effect on RAD51 (and other DNA repair genes)” value is given as “able to turn off RAD51”. Besides, the site of absorption entry in series [2] is on record as “preferentially absorbed in the intestines”. The bioavailability is approximately 27% in series [3] (2 mg/kg, administered as immediate release capsules or an oral solution) and approximately 27% in series [3] (from AUC0-∞ of oral versus IV dosing at 2 mg/kg). Further, the AUC(0-inf) amounted to 5.9 µM·h in series [3] (2 mg/kg, multiple 2-hour IV infusion doses) and 1.45 µM·h in series [3] (2 mg/kg, single oral dose). For the same molecule, the incidences of thrombocytopenia result in series [4] is “reduces the incidences of thrombocytopenia”. Moreover, in the series with primary human tumors, the “activity in primary human tumors” value is “active in primary human tumors from patients with colon, ovarian, lung and many hematological cancers”. Further, in series [5], the “pharmacokinetics, fasted state versus fed state” value is “difference in pharmacokinetics was observed”. In the series with tumor cell lines, the “activity against tumor cell lines” value was “active against many tumor cell lines”.
